For assay [1], the system named is primary CLL cells. Kind of assay: Western blotting / immunoblotting of apoptosis markers (cleaved PARP, caspases). The following applies: for cleaved PARP (apoptosis marker), western blot: 3 uM isoproterenol, 24 hr, IBMX positive control; for apoptosis by immunoblotting with apoptotic markers: 30 uM isoproterenol 12 hrs pre-treatment, 10 uM fludarabine 48 hr. It is filed as cell-based, human. As for the experimental part: Cell death markers for apoptosis (cleaved PARP, cleaved caspase 3 and caspase 9) and autophagy (accumulation of LC3 II) were assessed by western blotting.
[…] Cells were then harvested and examined by immunoblotting with apoptotic markers Cleaved PARP and caspace 9.
Control primary CLL cells ([…]), 10 uM fludarabine (Flud), a combination of both drugs at these concentrations (Flud/Iso), 0.5 uM doxorubicin (Dodo), a combination of 0.5 uM doxorubicin and 30 uM isoproterenol (Dodo/Iso), 0.5 uM mitoxantrone, and a combination of 0.5 uM mitoxantrone and 30 uM isoproterenol and incubated. Cells were than harvested and examined by immunoblotting with the indicated apoptotic markers.

The subject of assay [2] is primary CLL cells. Kind of assay: CellTiter-Glo ATP-based luminescent assay, intracellular ATP depletion. Conditions: for intracellular ATP depletion (luminescence), dose-response: gradient of concentrations, 1 to 20 μM. It is filed as cell-based, human. Here is the method: Primary CLL cells were treated with 3 uM isoproterenol (IC50 determined with Cell-titer Glo® assay) for 24 hr. Cell death markers for apoptosis (cleaved PARP, cleaved caspase 3 and caspase 9) and autophagy (accumulation of LC3 II) were assessed by western blotting. The […] phosphodiesterase inhibitor, IBMX, was used as a positive control because it induces apoptosis in CLL B cells.
CellTiter-Glo® Luminescent Cell Viability Assay is a homogeneous method for determining the number of viable cells in culture based on quantitation of the ATP present, an indicator of metabolically active cells.
ATP depletion in CLL cells was measured by the ATP-based luminescent assay CellTiter-Glo®.
Isoproterenol-induced intercellular ATP depletion was determined by the ATP-based luminescent assay CellTiter-Glo®. The efficiency of isoproterenol in depleting intracellular ATP is represented by the dose response curves shown by FIGS. 3B, 3D and 3F respectively.

Assay [3] deals with p-CREB. Kind of assay: Human phosphokinase array. The following applies: 20 μM for 24 hours, compared to untreated. In kind it is cell-based. As for the experimental part:
Samples of primary CLL cells were treated in vitro with 20 μM isoproterenol for 24 hours in a human phosphokinase array. In the array each kinase was spotted in duplicate with hybridization signals at the corners serving as controls. Relative levels of protein phosphorylation (normalized intensity for each antibody) were calculated for each untreated and treated sample.

Assay [4] concerns primary CLL cells. Kind of assay: Isoproterenol-induced intracellular cAMP accumulation. It is filed as cell-based, human. Conditions: IBMX pre-treatment one hour, then 10 uM for 24 hr; CLL cells compared to normal cells. As for the experimental part: Isoproterenol-induced intracellular cAMP accumulation in normal PBMCs and primary CLL cells was assessed. Cell samples were pre-treated for one hour with phosphodiesterase inhibitor (IBMX) and then with 10 uM isoproterenol for 24 hr.
(In general: cAMP levels reflect the balance of adenylyl cyclase and phosphodiesterase activity.)

Assay [5] relates to P53.
In assay [6] the test system is CLL primary cells. Put plainly: MTT (ATP independent) cell viability assay. It is filed as cell-based, human. Conditions: gradient of concentrations. The text has this:
The two assays gave completely different dose-response curves.

Assay [7] relates to normal PBMCs. Put plainly: Induced cell death by propidium iodide staining and flow cytometry. In kind it is cell-based, human. The following applies: 3 uM. As for the experimental part:
(§1) To assess viability of the treated cells, cells were stained by propidium iodide and analyzed by flow cytometry.
(§2) The PI/flow cytometry assay assesses cell viability using propidium iodide (PI) which is a membrane impermanent dye that is generally excluded from viable cells. It binds to double stranded DNA by intercalating between base pairs.
Cells from CLL, AML, and from normal donors were treated with 30 μM isoproterenol, 10 μM fludarabine, or a mixture of both drugs at these concentrations as shown by FIGS. 3A, 3C and 3E respectively.
On the technique in general: Flow cytometry measures light scatter and fluorescence of single cells or particles in a stream.

Assay [8] deals with primary CLL cells. It is filed as cell-based. Here is the method:
as §1, §2
Primary CLL cells were isolated from three CLL patients and were exposed 10 uM fludarabine (a purine analog) alone or in combination with 30 uM isoproterenol to assess the effects of the drug(s) on cytotoxicity and growth. Induced cell death was assessed by PI staining and flow cytometry.
After 24 hours treatment, the treated cells were stained with the cell-death marker, propidium iodide and analyzed with flow-cytometry to determine % induced cell death.

“Also recorded” adds a separate entry of the source.

On to `CC(C)Cn1c(=O)n(C)c(=O)c2[nH]cnc21` [IBMX], for which the “cleaved PARP (apoptosis marker), western blot” value in assay [1] is given as “presence of cleaved PARP”.

As for `Nc1nc(F)nc2c1ncn2[C@@H]1O[C@H](CO)[C@@H](O)[C@@H]1O` [fludarabine, Fludarabine], in assay [1], the “apoptosis by immunoblotting with apoptotic markers” value is “Apoptosis was observed”. Also, the “apoptosis, cleaved PARP (relative pixel density)” value in assay [1] (30 uM isoproterenol, 10 uM fludarabine) was “induced apoptosis”.

For the molecule `CC(C)NCC(O)c1ccc(O)c(O)c1` (stereo not shown) [isoproterenol, Isoproterenol], the “cleaved PARP (apoptosis marker), western blot” value in assay [1] is on record as “no cleaved PARP”. Further, the “apoptosis by immunoblotting with apoptotic markers” value in assay [1] is on record as “Apoptosis was not observed”. For the same molecule, the “intracellular ATP depletion” value in assay [2] (1 μM) is listed as “weak intracellular ATP depletion”. For the same molecule, the “depletion of intracellular ATP” value in assay [2] (30 μM for 12 hours) is given as “more than 80%”. In addition, the “sensitivity to isoproterenol induced intracellular ATP depletion” value in assay [2] (CLL primary cells compared with other leukemia subtypes and normal PBMCs) is on record as “highest sensitivity”. Moreover, in assay [2] (Homo sapiens, CLL cell, primary CLL cells, read-out: IC50 determined with Cell-titer Glo assay), the IC50 (as a rule, the concentration that gives 50% inhibition) was 3000 nM. Moreover, the “intracellular ATP depletion (luminescence), dose-response” value in assay [2] was “increased intracellular ATP depletion; also recorded: dose-dependent decrease in luminescence”; in assay [2] (listed as Iso), “induces intracellular ATP depletion”. Besides, the “sensitivity to isoproterenol (ATP depletion)” value in assay [2] (primary CLL cells from a CLL patient at early stage) is “lesser sensitivity”. In assay [3], the “phosphorylation of p-CREB” value was “only significantly up-regulated kinase”. Further, the “intracellular cAMP accumulation” value in assay [4] is “significantly higher accumulation of cAMP”. The p53 expression result in assay [5] was “doesn't induce any increase in p53 expression”. For the same molecule, in assay [6], the “cell death by MTT assay” value is on record as “doesn't induce cell death”. Further, the “cell death, PI staining / flow cytometry” value in assay [7] and in assay [8] (3 uM) was “did not induce any significant cell death” throughout. Also, the “cell death, ATP-independent assay (solid line FIG. 1C)” value in assay [8] (1 to 20 μM) was “did not induce cell death”.

Values taken from patent US11052101B2, “Methods for treating cancer using purine analogs by depleting intracellular ATP” (National Guard Health Affairs, priority 2019, dated 2021).
